From patent publication US20230158102A1 (priority 2020, published 2023)
Like-named read-outs stand apart in the source and are kept apart here.

How the values were obtained:
[1] = system: HCoV-229E; assay type: cell-based
[2] = system: SARS-CoV-2; assay: SARS-CoV-2 replication in human stem cell-derived pneumocyte like cells; assay type: cell-based; conditions: 10 nm plitidepsin for 1 hour before infection (4×10^4 pfu), 48 hour incubation
Method: Several in vitro experiments aimed at determining the effect of plitidepsin on SARS-CoV-2 were carried out and are disclosed herein. […] In another study, human stem cell-derived pneumocyte like cells were prophylactically exposed to 10 nm plitidepsin for 1 hour and then infected with SARS-CoV-2 (4×10^4 plaque forming units). After a 48 hour incubation period, both antiviral and cytotoxic plitidepsin effects were determined.

[3] = system: SARS-CoV-2; assay: Mouse model of adenovirus-mediated hACE2 infected with SARS-CoV-2; assay type: in vivo
[4] = system: SARS-CoV-2; assay: Transgenic K18-hACE2 mice infected with SARS-CoV-2; assay type: in vivo
[5] = system: THP-1 cells; assay: Proinflammatory cytokine secretion in stimulated THP-1 cells; assay type: cell-based; conditions: THP-1 cells stimulated with pathogen-associated molecular patterns-mimicking compounds
Method: In vitro studies were performed using THP-1 cells, a spontaneously immortalised monocyte-like cell line derived from the peripheral blood of a childhood case of acute monocytic leukaemia, that is widely used for investigating monocyte structure and function.

[6] = system: CD45+ cells; assay: Ex vivo cytokine expression (IL 6, IL 10, TNFα) in LPS-B5 stimulated CD45+ cells from broncho-alveolar lavages of treated mice; conditions: CD45+ cells from plitidepsin treated mice
Source text: An ex vivo study assessed the effect of plitidepsin on expression of the cytokines IL 6, IL 10, and TNFα in the lungs of mice.

[7] = system: SARS-CoV-2 (COVID-19); assay: Study APLICOV-PC (NCT04382066): efficacy in patients hospitalised for COVID-19; assay type: in vivo, human; conditions: for Patients discharged from hospital by Day 8, (%): 192 h; for Patients discharged from hospital by Day 31, (%) / Patients requiring oxygen therapy at Day 31, (%): 744 h
[8] = Storage stability of plitidepsin vials and reconstituted solution; assay type: physicochemical
Method: Plitidepsin will be labelled with the study protocol code, the batch number, the content, the expiry date, the storage conditions, the name of the investigator and the sponsor. The study drug will be labelled in accordance with Annex 13 of the European Good Manufacturing Practices. Plitidepsin should be stored between 2° C. and 8° C. and the vials should be kept in the outer carton to protect them from light. The drug in these conditions is stable for 60 months.
After reconstitution of the 2 mg plitidepsin vial with 4 ml of the solution for reconstitution of macrogolglycerol ricinoleate/ethanol/water for injection, the reconstituted solution should be diluted and used immediately after preparation. If not used immediately, storage times and conditions until use are the responsibility of the user. […] If storage is required before administration, solutions should be stored refrigerated and protected from light and should be used within 24 hours after reconstitution.

[9] = system: Vero E6 cells; conditions: Vero E6, absence of virus, 3 days
[10] = system: NFκB; conditions: tumour cells, early in vitro studies; cited from earlier work
[11] = target: T1, eEF1A (Oryctolagus cuniculus, UniProt Q71V39); conditions: 14C-plitidepsin, eEF1A purified from rabbit muscle; cited from earlier work
T1 construct: eEF1A purified from rabbit muscle; from tissue; host or cells: rabbit muscle

[12] = cancer patients, single-agent plitidepsin; cited from earlier work
[13] = in vitro; conditions: African green monkey

T1 sequence (Q71V39 whole entry): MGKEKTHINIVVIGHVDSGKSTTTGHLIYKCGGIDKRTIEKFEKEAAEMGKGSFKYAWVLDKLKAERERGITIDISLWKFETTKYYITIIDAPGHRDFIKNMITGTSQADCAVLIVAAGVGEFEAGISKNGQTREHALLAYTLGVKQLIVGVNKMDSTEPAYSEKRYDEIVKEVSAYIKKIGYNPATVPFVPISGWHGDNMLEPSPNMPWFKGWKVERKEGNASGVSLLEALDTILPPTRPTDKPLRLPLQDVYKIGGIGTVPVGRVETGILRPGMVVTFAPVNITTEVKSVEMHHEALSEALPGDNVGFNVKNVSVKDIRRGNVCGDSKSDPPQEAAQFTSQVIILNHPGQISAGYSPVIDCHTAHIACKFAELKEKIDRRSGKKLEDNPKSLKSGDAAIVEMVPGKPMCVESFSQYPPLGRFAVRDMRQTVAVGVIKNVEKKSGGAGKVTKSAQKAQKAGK

SMILES: CC[C@H](C)[C@H]1NC(=O)[C@@H](NC(=O)[C@@H](CC(C)C)N(C)C(=O)[C@@H]2CCCN2C(=O)C(C)=O)[C@@H](C)OC(=O)[C@H](Cc2ccc(OC)cc2)N(C)C(=O)[C@@H]2CCCN2C(=O)[C@H](CC(C)C)NC(=O)[C@@H](C)C(=O)[C@H](C(C)C)OC(=O)C[C@@H]1O [PLD, (−)-(3S,6R,7S,10R,11S,15S,17S,20S,25aS)-11-hydroxy-3-(4-methoxybenzyl)-2,6,17-trimethyl-15-(1-methylethyl)-7-[[(2R)-4-methyl-2-[methyl[[(2S)-1-(2-oxopropanoyl)pyrrolidin-2-yl]carbonyl]amino]pentanoyl]amino]-10-[(1S)-1-methylpropyl]-20-(2-methylpropyl)tetradecahydro-15H-pyrrolo[2,1-f]-[1,15,4,7,10,20]dioxatetrazacyclotricosine-1,4,8,13,16,18,21(17H)-heptone]
- Concentration as low as which an antiviral effect was induced [1]: 0.5 nM
- Replication of SARS-CoV-2 [2]: completely eliminated replication of SARS-CoV-2
- Antiviral effects in vivo [3]: potent antiviral effects in vivo
- Antiviral effects in vivo [4]: potent antiviral effects in vivo
- Secretion of proinflammatory cytokines [5]: significantly reduced the secretion of the proinflammatory cytokines
- IL 6, IL 10 and TNFα production upon LPS-B5 stimulation compared with nonstimulated controls [6]: failed to show a marked increase in IL 6, IL 10, and TNFα
- Mean time from baseline until undetectable viral load [7]: 11 days
- Mortality from Day 1 to Day 31, (%) [7]: (4.5) %
- Patients requiring ICU admission from Day 1 to Day 7, (%) [7]: (11.4) %
- Patients requiring ICU admission from Day 1 to Day 15, (%) [7]: (13.6) %
- Patients requiring ICU admission from Day 1 to Day 31, (%) [7]: (13.6) %
- Patients requiring invasive mechanical ventilation and/or ICU admission from Day 1 to Day 7, (%) [7]: (11.4) %
- Patients requiring invasive mechanical ventilation and/or ICU admission from Day 1 to Day 15, (%) [7]: (13.6) %
- Patients requiring invasive mechanical ventilation and/or ICU admission from Day 1 to Day 31, (%) [7]: (13.6) %
- Patients requiring noninvasive mechanical ventilation from Day 1 to Day 7, (%) [7]: (9.1) %
- Patients requiring noninvasive mechanical ventilation from Day 1 to Day 15, (%) [7]: (11.4) %
- Patients requiring noninvasive mechanical ventilation from Day 1 to Day 31, (%) [7]: (13.6) %
- Mean time from baseline until undetectable viral load ([7]; 1.5 mg): 7 days
- Mortality from Day 1 to Day 31, (%) ([7]; 1.5 mg): (7.1) %
- Patients requiring ICU admission from Day 1 to Day 7, (%) ([7]; 1.5 mg): (14.3) %
- Patients requiring ICU admission from Day 1 to Day 15, (%) ([7]; 1.5 mg): (14.3) %
- Patients requiring ICU admission from Day 1 to Day 31, (%) ([7]; 1.5 mg): (14.3) %
- Patients requiring invasive mechanical ventilation and/or ICU admission from Day 1 to Day 7, (%) ([7]; 1.5 mg): (14.3) %
- Patients requiring invasive mechanical ventilation and/or ICU admission from Day 1 to Day 15, (%) ([7]; 1.5 mg): (14.3) %
- Patients requiring invasive mechanical ventilation and/or ICU admission from Day 1 to Day 31, (%) ([7]; 1.5 mg): (14.3) %
- Patients requiring noninvasive mechanical ventilation from Day 1 to Day 7, (%) ([7]; 1.5 mg): (21.4) %
- Patients requiring noninvasive mechanical ventilation from Day 1 to Day 15, (%) ([7]; 1.5 mg): (21.4) %
- Patients requiring noninvasive mechanical ventilation from Day 1 to Day 31, (%) ([7]; 1.5 mg): (21.4) %
- Patients requiring oxygen therapy at Day 7, (%) ([7]; 1.5 mg, 168 h): (71.4) %
- Patients discharged from hospital by Day 8, (%) ([7]; 1.5 mg): (42.9) %
- Patients discharged from hospital by Day 15, (%) ([7]; 1.5 mg, 360 h): (78.6) %
- Patients requiring oxygen therapy at Day 15, (%) ([7]; 1.5 mg, 360 h): (28.6) %
- Patients discharged from hospital by Day 31, (%) ([7]; 1.5 mg): (92.9) %
- Mean time from baseline until undetectable viral load ([7]; 2 mg): 13 days
- Patients requiring ICU admission from Day 1 to Day 7, (%) ([7]; 2 mg): (6.7) %
- Patients requiring ICU admission from Day 1 to Day 15, (%) ([7]; 2 mg): (6.7) %
- Patients requiring ICU admission from Day 1 to Day 31, (%) ([7]; 2 mg): (6.7) %
- Patients requiring invasive mechanical ventilation and/or ICU admission from Day 1 to Day 7, (%) ([7]; 2 mg): (6.7) %
- Patients requiring invasive mechanical ventilation and/or ICU admission from Day 1 to Day 15, (%) ([7]; 2 mg): (6.7) %
- Patients requiring invasive mechanical ventilation and/or ICU admission from Day 1 to Day 31, (%) ([7]; 2 mg): (6.7) %
- Patients requiring noninvasive mechanical ventilation from Day 1 to Day 31, (%) ([7]; 2 mg): (6.7) %
- Patients requiring oxygen therapy at Day 7, (%) ([7]; 2 mg, 168 h): (66.7) %
- Patients discharged from hospital by Day 8, (%) ([7]; 2 mg): (60.0) %
- Patients discharged from hospital by Day 15, (%) ([7]; 2 mg, 360 h): (93.3) %
- Patients requiring oxygen therapy at Day 15, (%) ([7]; 2 mg, 360 h): (6.7) %
- Patients discharged from hospital by Day 31, (%) ([7]; 2 mg): (93.3) %
- Patients requiring oxygen therapy at Day 31, (%) ([7]; 2 mg): (13.3) %
- Mean time from baseline until undetectable viral load ([7]; 2.5 mg): 12 days
- Mortality from Day 1 to Day 31, (%) ([7]; 2.5 mg): (6.7) %
- Patients requiring ICU admission from Day 1 to Day 7, (%) ([7]; 2.5 mg): (13.3) %
- Patients requiring ICU admission from Day 1 to Day 15, (%) ([7]; 2.5 mg): (20.0) %
- Patients requiring ICU admission from Day 1 to Day 31, (%) ([7]; 2.5 mg): (20.0) %
- Patients requiring invasive mechanical ventilation and/or ICU admission from Day 1 to Day 7, (%) ([7]; 2.5 mg): (13.3) %
- Patients requiring invasive mechanical ventilation and/or ICU admission from Day 1 to Day 15, (%) ([7]; 2.5 mg): (20.0) %
- Patients requiring invasive mechanical ventilation and/or ICU admission from Day 1 to Day 31, (%) ([7]; 2.5 mg): (20.0) %
- Patients requiring noninvasive mechanical ventilation from Day 1 to Day 7, (%) ([7]; 2.5 mg): (6.7) %
- Patients requiring noninvasive mechanical ventilation from Day 1 to Day 15, (%) ([7]; 2.5 mg): (13.3) %
- Patients requiring noninvasive mechanical ventilation from Day 1 to Day 31, (%) ([7]; 2.5 mg): (13.3) %
- Patients requiring oxygen therapy at Day 7, (%) ([7]; 2.5 mg, 168 h): (73.3) %
- Patients discharged from hospital by Day 8, (%) ([7]; 2.5 mg): (66.7) %
- Patients discharged from hospital by Day 15, (%) ([7]; 2.5 mg, 360 h): (73.3) %
- Patients requiring oxygen therapy at Day 15, (%) ([7]; 2.5 mg, 360 h): (26.7) %
- Patients discharged from hospital by Day 31, (%) ([7]; 2.5 mg): (86.7) %
- Patients requiring oxygen therapy at Day 31, (%) ([7]; 2.5 mg): (6.7) %
- Mean reduction in viral load by Day 7 ([7]; 168 h): −3.1 log10 copies/mL
- Patients requiring oxygen therapy at Day 7, (%) ([7]; 168 h): (70.5) %
- Patients discharged from hospital by Day 8, (%) [7]: (56.8) %
- Patients discharged from hospital by Day 15, (%) ([7]; 360 h): (81.8) %
- Patients requiring oxygen therapy at Day 15, (%) ([7]; 360 h): (20.5) %
- Patients with mild disease discharged by Day 15 ([7]; 360 h): 100%
- Patients with moderate disease discharged by Day 15 ([7]; 360 h): 82%
- Patients with severe disease discharged by Day 15 ([7]; 360 h): 57%
- Reduction in baseline viral load by Day 15 ([7]; 360 h): −3.0 log
- Patients discharged from hospital by Day 31, (%) [7]: (90.9) %
- Patients requiring oxygen therapy at Day 31, (%) [7]: (6.8) %
- Mean reduction in viral load by Day 15 ([7]; across dose cohorts): 4.5 log10 copies/mL
- Stability of the drug on storage ([8]; between 2° C. and 8° C., vials in the outer carton protected from light): 60 months
- Physical, chemical and microbiological stability of the reconstituted concentrated solution ([8]; original vial under indoor light at room temperature): 6 hours
- Physical, chemical and microbiological stability of the reconstituted concentrated solution ([8]; refrigerated conditions (5° C.±3° C.)): 24 hours
- Tolerability of treatment (1.5, 2.0 and 2.5 mg daily for 3 days, 45 patients): well tolerated
- Prevalence of Grade ≥3 AEs (1.5-mg cohort): 33.3%
- Prevalence of Grade ≥3 AEs (2.0-mg cohort): 20.0%
- Prevalence of Grade ≥3 AEs (2.5-mg cohort): 40.0
- Events of special interest: Grade ≥3 ALT elevation (all cohorts): 1 case
- Patients unable to complete plitidepsin treatment (all cohorts): 1 patient
- Patients who experienced Grade ≥3 AEs (all cohorts (14/45)): 31%
- Patients who experienced a treatment-related Grade ≥3 AE (all cohorts, 45 patients): 2 patients
- Patients who experienced SAEs (dosed at 1.5 mg): 6 patients
- Patients who experienced SAEs (dosed at 2.0 mg): 1 patients
- Patients who experienced SAEs (dosed at 2.5 mg): 3 patients
- Patients with a 2 grade increase in CPK (human, in vivo): 1 patient
- Patients who experienced SAEs (total): 10 patients
- Cytotoxic effects of the drug at concentrations inhibiting viral-induced cytopathic effects [9]: no cytotoxic effects of the drug were observed
- Effect on NFκB [10]: induces down-regulation of NFκB
- Binding affinity [11]: high affinity
- Rate of dissociation [11]: low rate of dissociation
- AE asthenia/fatigue [12]: 83%
- AE constipation [12]: 29%
- AE diarrhoea [12]: 31%
- AE nausea [12]: 64%
- AE pyrexia [12]: 28%
- AE vomiting [12]: 38%
- CC50 [13]: 178 to 431 nM
